Results from patent US4035394A, “5-Phenyl-2-furanyl-oxo or-hydroxy alkanoic acids and ethyl esters as gastric acid antisecretory agents” (Morton-Norwich Products, Inc., priority 1976, dated 1977).

System: gastric acid secretion
Experiment: modified standard pylorus-ligated secretory testing procedure in the rat
Type: in vivo, Sprague-Dawley rat
Settings: 300 mg/kg p.o. suspension in 0.5% Methocel 1 hour prior to pylorus ligation, 4 hours after ligation; for % Inhibition Gastric Acid Output: titration to pH7, vs control; for % Inhibition Vol. of Gastric Secretion: vs control
Experimental: Such effect is evidenced using a modified standard pylorus-ligated secretory testing procedure in the rat. Sprague-Dawley rats, weighing 180-210 g and previously fasted for 24 hours, were used. All compounds were given perorally as suspensions in 0.5% Methocel 1 hour prior to pylorus ligation. Under light ether anesthesia, the rat stomach was ligated at the pylorus region. Four hours after ligation the conscious rat was sacrificed by a chloroform overdose. The stomach was carefully excised and its content drained into a centrifuge tube. Samples were centrifuged to separate secretions from debris. Gastric fluid volume reading and determination of sample contamination, based on debris and sample color, was made. Titration was performed on a sample aliquot of 1 ml diluted to a volume of 5 ml using distilled water. The titrant used was 0.1N NaOH. Total gastric acid output in the stomach was determined by titration to pH7. A dose of 300 mg/kg p.o. of a compound was administered to a group of rats and its effect on the volume of gastric secretion and acid output compared to a control group receiving 0.5% Methocel p.o. The activity of each compound based on the degree of inhibition of gastric acid output is set forth in Table I.

SMILES	% Inhibition Gastric Acid Output [%]	% Inhibition Vol. of Gastric Secretion [%]
O=C(O)CCC(O)c1ccc(-c2ccc(Cl)cc2)o1 (stereo not drawn) [II, 4-[5-(4-Chlorophenyl)-2-furanyl]-4-hydroxybutanoic Acid]	72.3	47.3
O=C(O)CCC(=O)c1ccc(-c2ccc(Cl)cc2)o1 [IV, B]	57.1	40.7
CCOC(=O)CC(=O)c1ccc(-c2ccc(Cl)cc2)o1 [VI, B]	50.0	19.8
O=C(O)CC(O)c1ccc(-c2ccc(Cl)cc2Cl)o1 (stereo not drawn) [V, 3-[5-(2,4-Dichlorophenyl)-2-furanyl]-3-hydroxypropanoic Acid]	45.4	3.4
O=C(O)CC(O)c1ccc(-c2ccccc2Cl)o1 (stereo not drawn) [III, 3-[5-(2-Chlorophenyl)-2-furanyl]-3-hydroxypropanoic Acid]	95.0	33.5
CCOC(=O)CC(O)c1ccc(-c2ccc([N+](=O)[O-])cc2)o1 (stereo not drawn) [Example I, Ethyl 3-[5-(4-Nitrophenyl)-2-furanyl]-3-hydroxypropanoate]	43.1	33.17
